Results reported in patent US20180168151A1, “COMPOSITION AND SYSTEM FOR ATTRACTING LEPIDOPTEROUS INSECTS” (The New Zealand Institute for Plant and Food Research …, priority 2015, published 2018).

Assays:
[1] = test system: Lepidopterous insects; test: Summary of field attractant trials (description); format: in vivo; details: other compounds released by infested apple seedlings; results were inconsistent
Experimental: In the trials described in the Examples, the compounds of formula I were placed inside a permeable polyethylene bag. The acetic acid was applied to a cotton ball inside a 5 ml polyethylene vial containing a 1 mm hole. The bag and vial were placed in the centre of a sticky trap.

[2] = test system: ESBM
Experimental: (§1) The variance of mean captures obtained with each compound or each blend of compounds was stabilized using the √(x+1) transformation of counts and the significance of treatment effects tested using ANOVA.
(§2) This experiment was conducted between the 11th to the 22 Jul. 2014 in a mixed variety organic apple orchard in Summerland, British Columbia, Canada. Large white delta traps (Trece Inc) were used. The loadings of blends were as follow: 1) 100 mg benzyl nitrile and 3 mL acetic acid; 2) 100 mg of 2-phenyethanol and 3 mL acetic acid; 3) 100 mg benzyl alcohol and 3 mL acetic acid. Traps baited with 3 mL of acetic acid was used to quantify the role of acetic acid. A trap with a blank lure was used as negative control. Traps were baited with the compound of formula I and placed in 5 rows, with five replicates of each treatment in a randomized block design. Traps were positioned 1.5 m above the ground in each trap tree, and were spaced 20 m apart in each row. Each treatment was assigned randomly to a trap tree within each row of trees. The polythene sachet and the acetic acid vial were attached to the side of the traps using Velcro tape. Sticky bases were checked weekly during the experimental period.
(§3) This experiment was conducted between 3 Jul. to 17 Jul. 2014 in a mixed variety organic apple orchard in Summerland, British Columbia, Canada using the same experimental protocol as Example 4. The trial targeted both ESBM and OBLR. The relative attractiveness of the following treatments was investigated: 1) 100 mg benzyl nitrile alone; 2) 3 mL acetic acid alone; and 3) 100 mg of benzyl nitrile and 3 mL acetic acid. A trap with a blank lure was used as negative control.

[3] = test system: OBLR
Experimental: as §1, §2, §3

[4] = test system: ESBM; test: Example 7A: various doses of benzyl nitrile with constant acetic acid, baited traps; format: in vivo, Spilonota ocellana
Experimental: Large white delta traps (Trece Inc) were used. […] Sticky bases were checked weekly during the experimental period.
This experiment was conducted between 8 Jul. to 22 Jul. […] This trial targeted ESBM. The relative attractiveness of three binary blends containing constant amount of acetic acid (3 mL) plus varying amounts of benzyl nitrile (1, 10, and 100 mg) was investigated. […] Experimental protocol was similar to Example 4.

[5] = test system: ESBM; details: for numbers of ESBM males and females attracted, each alone, compared with each other: 10 mg benzyl nitrile alone, 0.3 mL acetic acid alone
Experimental: as §1
(§4) This experiment was conducted from 21 Jun. to 2 Jul. 2015 only for ESBM and OBLR in a mixed varieties apple orchard in Summerland, British Columbia, Canada (49°34′50.02″N, 119°38′16.57″W). The relative attractiveness of the following treatments was investigated: 1) 10 mg benzyl nitrile alone; 2) 0.3 mL acetic acid alone; and 3) 10 mg benzyl nitrile+0.3 mL acetic acid. A trap with a blank lure was used as negative control.

[6] = test system: OBLR; details: for numbers of OBLR males and females attracted, each alone, compared with each other: 10 mg benzyl nitrile alone, 0.3 mL acetic acid alone
Experimental: as §1, §4

[7] = test system: ESBM; test: Example 1B: individual compounds as attractants, baited traps; format: in vivo, Spilonota ocellana; details: tested individually, 10 mg (acetic acid 0.3 mL); no significant differences among treatments
Experimental: (§5) This experiment was conducted from 28 Nov. to 12 Dec. 2013 for LBAM and 3-10 Jun. 2015 for ESBM and OBLR to investigate the biological activity of the individual volatile organic compounds. Lures of benzyl alcohol, benzyl nitrile, indole, 2-phenyethanol, (E)-nerolidol, and 0.3 mL acetic acid were made by dispensing 10 mg of each compound on a Boomerang regular cellulose acetate filter (7.5 mm diameter×10 mm, Moss Packaging Co. Ltd., Wellington, New Zealand) inside a permeable polyethylene bag (100 μm wall thickness, 20 mm×20 mm, Masterton, New Zealand) that was then heat-sealed. A trap with a lure without chemical was used as negative control.

[8] = test system: LBAM; test: as above; format: in vivo, Epiphyas postvittana; details: tested individually, 10 mg (acetic acid 0.3 mL); no significant differences among treatments
Experimental: as §5

[9] = test system: OBLR; test: as above; format: in vivo, Choristoneura rosaceana; details: tested individually, 10 mg
Experimental: as §5

[10] = test system: ESBM; test: Example 5: binary and ternary blends, baited traps; format: in vivo, Spilonota ocellana; details: 100 mg 2-phenylethanol added to 100 mg benzyl nitrile and 3 mL acetic acid
Experimental: (§6) This trial was conducted in a mixed variety apple orchard in Summerland, British Columbia, Canada from 28 Jul. to 11 Aug. 2014 targeting ESBM and threelined leaf rollers (TLLR). […] White delta traps (Trece Inc) were used.

[11] = test system: TLLR; test: Example 5: binary and ternary blends, baited traps; format: in vivo, Pandemis limtata; details: 100 mg 2-phenylethanol added to 100 mg benzyl nitrile and 3 mL acetic acid
Experimental: as §6

[12] = 100 mg benzyl nitrile added to 3 mL acetic acid
[13] = binary blend containing 1 mg benzyl nitrile, 3 mL acetic acid
[14] = binary blend with constant 3 mL acetic acid
[15] = 10 mg benzyl nitrile added to 0.3 mL acetic acid, P<0.05

SMILES: c1ccc2[nH]ccc2c1 [indole]
- attractant activity against some insects [1]: some attractant activity

SMILES: N#CCc1ccccc1 [benzyl nitrile]
- fold increase in number of ESBM females caught on addition to acetic acid [2, 12]: 3 fold
- fold increase in number of ESBM males caught on addition to acetic acid [2, 12]: 4 fold
- attractiveness to adults ESBM, compound alone ([2]; 100 mg benzyl nitrile alone): not attractive
- fold increase in number of OBLR females caught on addition to acetic acid [3, 12]: 9 fold
- fold increase in number of OBLR males caught on addition to acetic acid [3, 12]: 2 fold
- attractiveness to adults OBLR, compound alone ([3]; 100 mg benzyl nitrile alone): not attractive
- ESBM females attracted compared with acetic acid alone [4, 13]: significantly more females
- response of ESBM males compared with acetic acid alone [4, 13]: not significant
- change in number of ESBM males and females caught on increasing dose from 1 mg to 10 mg [4, 14]: significant increase
- change in number of ESBM males and females caught on increasing dose from 10 mg to 100 mg [4, 14]: did not result in a significant increase
- change in number of ESBM males and females caught on addition to acetic acid [5, 15]: significant increases
- numbers of ESBM males and females attracted, each alone, compared with each other [5]: attracted similar numbers
- change in number of OBLR males and females caught on addition to acetic acid [6, 15]: significant increases
- numbers of OBLR males and females attracted, each alone, compared with each other [6]: attracted similar numbers
- attraction of ESBM into traps [7]: attracted males and females into the traps
- attraction of adult LBAM into traps [8]: attracted males and females into the traps

SMILES: C=CC(C)(O)CC/C=C(\C)CCC=C(C)C (centres unmarked) [(E)-nerolidol]
- attractant activity against some insects [1]: some attractant activity

SMILES: OCc1ccccc1 [benzyl alcohol]
- attraction of adult LBAM into traps [8]: attracted males and females into the traps

SMILES: CC(=O)O [acetic acid]
- ESBM males and females attracted, compared with traps baited with benzyl nitrile alone ([2]; 3 mL acetic acid alone): significantly attracted more males and females
- OBLR males and females attracted, compared with traps baited with benzyl nitrile alone ([3]; 3 mL acetic acid alone): significantly attracted more males and females
- numbers of ESBM males and females attracted, each alone, compared with each other [5]: attracted similar numbers
- numbers of OBLR males and females attracted, each alone, compared with each other [6]: attracted similar numbers
- attraction of ESBM into traps [7]: attracted males and females into the traps
- attraction of adult LBAM into traps [8]: attracted males and females into the traps

SMILES: OCCc1ccccc1 [2-phenylethanol]
- attraction of OBLR into traps [9]: attracted males and females
- change in number of ESBM males and females on addition to binary blend benzyl nitrile/acetic acid [10]: did not result in significant increase
- change in number of TLLR males and females on addition to binary blend benzyl nitrile/acetic acid [11]: did not result in significant increase
- attraction of adult LBAM into traps [8]: attracted males and females into the traps
